The record followed here is PubChem BioAssay AID1417 (Emory University Molecular Libraries Screening Center, 2008).

This assay deals with Induced myeloid leukemia cell differentiation protein Mcl-1 (Homo sapiens) (UniProt Q07820). The assay is described as follows: Mcl-1 Noxa peptide disruption concentration-response – biochemical, TR-FRET, dose response (AID 1417). The following applies: Mcl-1/Noxa peptide interaction, cell-free TR-FRET (terbium/rhodamine), 2 h; measured here: absolute IC50. (In general: TR-FRET usually uses a lanthanide donor and a delayed reading to cut background.)
Sequence of Induced myeloid leukemia cell differentiation protein Mcl-1 (Homo sapiens) (Q07820 whole entry, looked up): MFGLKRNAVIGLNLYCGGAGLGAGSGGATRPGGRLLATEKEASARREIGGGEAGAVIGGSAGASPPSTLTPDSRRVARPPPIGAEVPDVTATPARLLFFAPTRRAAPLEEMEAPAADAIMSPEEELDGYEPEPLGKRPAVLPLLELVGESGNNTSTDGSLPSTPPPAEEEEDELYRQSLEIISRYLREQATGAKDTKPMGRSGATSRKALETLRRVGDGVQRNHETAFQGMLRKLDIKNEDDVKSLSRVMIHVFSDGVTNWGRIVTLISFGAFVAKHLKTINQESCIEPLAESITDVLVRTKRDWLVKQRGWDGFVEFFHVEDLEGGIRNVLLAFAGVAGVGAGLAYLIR
The IC50 is the midpoint of a concentration-inhibition curve. Higher therefore signals lower potency. Turning to `COc1ccc2c(c1)CC/C(=C\Nc1ccc3c(c1)OCO3)C2=O`, the IC50 is greater than 54 µM. Under `CS(=O)(=O)C1=NSC2=NC(=O)/C(=C\c3cccn3-c3ccccc3Cl)C(=N)N21` stands 5.59 µM; under `O=c1c2c3nc4ccccc4nc3n(Cc3ccccc3)c2ncn1Cc1ccco1`, greater than 54 µM; under `Cc1ccc(N2C(=O)NC(=O)/C(=C\c3cnc(-c4ccccc4)nc3)C2=O)cc1`, 20.2 µM. Then `O=C(CN1C(=O)/C(=C2\SC(=S)N(C3CCS(=O)(=O)C3)C2=O)c2ccccc21)Nc1ccc(F)cc1` (stereo not given), with 2.07 µM; and `CCOc1ccc2nc(N3C(=O)/C(=C/c4ccc(Cl)cc4)NC3=S)sc2c1`, with 1.55 µM. Then `CC(=O)N(C1=C(Cl)C(=O)c2ccccc2C1=O)C1CCCCC1`, with less than 0.4 µM; and `NC(=S)n1[nH]c(-c2ccc([N+](=O)[O-])cc2)c(N=Nc2ccc(O)cc2)c1=O`, with 3.13 µM. In turn, `COc1ccccc1NC1=C(NC(C)=O)C(=O)c2ccccc2C1=O` had an IC50 of 2.48 µM. As to `CCCc1ccc(/C=C2\C(=O)c3ccccc3C(O)=C2C(=O)OCC)cc1`, the IC50 was greater than 54 µM. `CC(C)c1ccc(S(=O)(=O)/N=C2/C=C(Sc3ncn[nH]3)C(=O)c3ccccc32)cc1`: the concentration for half-maximal inhibition (IC50) is less than 0.4 µM. On to `CN(C)S(=O)(=O)c1cccc(-c2nn(-c3ccccc3)cc2/C=C2\SC(=S)NC2=O)c1`, for which the IC50 was found to be 0.48 µM. `O=C(CSc1nnc(-c2ccco2)c(-c2ccco2)n1)c1ccccc1` displayed an IC50 of 3.7 µM. Then `O=c1/c(=C/c2ccc(O)c([N+](=O)[O-])c2)sc2nc3ccccc3n12`, with 4.26 µM. Under `O=C(Nc1cccc(S(=O)(=O)N2CCOCC2)c1)c1c2c(nc3ccccc13)CCC2` stands 3.08 µM; under `COc1ccc(C(=O)N=c2c(C#N)cc3c(=O)n4cccc(C)c4nc3n2Cc2ccco2)cc1`, 13.8 µM; under `Cc1ccc(OCCCC(=O)Nc2ccccc2C(F)(F)F)cc1`, 43.9 µM. As to `NC(=O)c1c(NC(=O)CSc2nnc(-c3ccco3)n2-c2ccccc2)sc2c1CCC2`, the IC50 was determined as 5.75 µM.

Turning to `Cc1cc(C)n2c(SC/C(O)=C(\C#N)c3nc4ccccc4[nH]3)nnc2n1`, the IC50 was less than 0.4 µM. Then `CCOC(=O)CSc1nnc2n1C(C)(C)Cc1ccccc1-2`, with greater than 54 µM; and `C/C(=N\NC(=O)c1cccc(N/N=C(\C)c2cc(O)ccc2O)c1)c1cc(O)ccc1O`, with less than 0.4 µM; and `Cc1ccc2c(c1)C1C=CCC1C(C(=O)O)N2` (stereo not given), with less than 0.4 µM. The compound `O=C(NCCc1ccccc1)c1ccc2nc(-c3ccco3)c(-c3ccco3)nc2c1` displayed an IC50 of 2 µM. Take `CCOC(=O)C1CCCN(c2ccc(NC(=O)c3snc4c(=O)[nH]c(C)nc34)cc2)C1` (stereo not given): the IC50 was 6.54 µM.

Take `COc1cccc(NS(=O)(=O)c2ccc3c(c2)C2C=CCC2C(c2ccc(C(=O)O)cc2)N3)c1` (stereo not given): the IC50 amounted to 1.02 µM. As to `COc1ccccc1Nc1nc(-c2sc(NC(=O)c3ccc([N+](=O)[O-])cc3)nc2C)cs1`, the IC50 is less than 0.4 µM. Then `CCN(c1ccc(NC(=O)COC(=O)c2cc3ccccc3oc2=O)cc1)C(C)C`, with greater than 54 µM. Compound `COC(=O)c1ccc(CSc2nc(-c3ccccc3)cs2)o1` showed an IC50 greater than 54 µM. Under `O=[N+]([O-])c1ccc(-c2cc(-c3ccc(Cl)cc3)n[nH]2)cc1` stands 5.61 µM; under `C=CCOc1c(OC)cc(/C=N/Nc2cccc(C(=O)O)c2)c(Br)c1Br`, greater than 54 µM; under `CN(C)c1ccc(NC(=O)Cn2ncn3c(cc4ccccc43)c2=O)cc1`, 3.42 µM. In the case of `O=C(CSc1nnc(-c2ccco2)c(-c2ccco2)n1)Nc1ccccc1`, the IC50 stood at 2.92 µM. `CCN(CC)c1ccc(NC(=O)CCCOc2cccc(C)c2)cc1` gave an IC50 greater than 54 µM. With `C=CCOC(=O)/C(=C\c1ccccc1)NC(=O)c1ccc(C)cc1`, the IC50 was greater than 54 µM.

In turn, `CCNC(=O)COC(=O)c1cc(-c2ccco2)nc2ccccc12` showed a half-inhibitory concentration (IC50) of 1.81 µM. In turn, `CSc1ccc(/C=N/Nc2cccc(C(=O)O)c2)cc1` registered a half-inhibitory concentration (IC50) of 0.893 µM.

The compound `O=C(C1=C[C@@H](c2ccc(C(F)(F)F)cc2)C[C@@H](OCc2ccc(CO)cc2)O1)N1CCN(Cc2ccccc2)CC1` showed an IC50 greater than 54 µM.

In the case of `COc1ccc(C2=CC(=O)C=CC2=O)cc1`, the IC50 was less than 0.4 µM. Turning to `COc1ccc(/C=C2\C(=O)N(c3c(Cl)cc(Cl)cc3Cl)N=C2NC(=O)c2cccc([N+](=O)[O-])c2)cc1`, the IC50 worked out at 2.96 µM. Under `Cc1ccc(-c2cc(C(=O)N3CCN(c4ncccn4)CC3)c3cc(Br)ccc3n2)o1` stands 3.78 µM; under `O=C1CSC(=S)N1/N=C/c1ccc(O)c([N+](=O)[O-])c1`, 1.39 µM; under `Cc1c2c(=O)n(-c3nc4ccccc4s3)nc-2cc(O)n1Cc1ccccc1`, 5.62 µM.

Compound `COc1ccc(NC(=O)Cc2c(SC)c3ccccc3n2Cc2ccccc2)cc1` returned an IC50 greater than 54 µM. `Cc1ccc2[nH]c(O)c(N=Nc3nc4ccccc4s3)c2c1` had an IC50 of 2.48 µM. Compound `CCN(c1ccc(NC(=O)COC(=O)c2ccc(C)c(S(=O)(=O)N3CCOCC3)c2)cc1)C(C)C` showed an IC50 greater than 54 µM. `CCNc1ccc(Br)cc(C(=O)/C=C/c2c(Cl)cccc2Cl)c1=O` came in with an IC50 of 1.8 µM. As to `COC(=O)c1cc(O)cc(OC)c1Oc1cc(C)cc(O)c1C(=O)O`, the half-inhibitory concentration (IC50) was greater than 54 µM. `COc1ccc(CN2C(=O)NC(=O)/C(=C/c3ccc([N+](=O)[O-])o3)C2=O)cc1` returned an IC50 of 2.81 µM. Then `O=C(O)c1cccc(Cn2c(Cl)c(/C=N/NC(=O)c3cc4ccccc4cc3O)sc2=O)c1`, with 3.35 µM; and `Cc1ccc2c(c1Cl)NC(C(=O)O)C1CC(Sc3ccccc3[N+](=O)[O-])C(Cl)C21` (stereo not given), with 2.52 µM.
